# *1 amine or outer side, *2 acyl side, *3 side chain or, on linkers, in order; H or OH if unused. Where a SMILES comes first, the peptide text is derived from it. Bridges are numbered along the chain shown (N, C = ends). Roman numbers before positions name the chains, in order. [ ]: non-standard residue; d: D form. Actinocin(9to1) = Cc1c2oc3c(C)ccc(C(=O)[*:1])c3nc-2c(C(=O)[*:2])c(N)c1=O; NMeV = CN[C@H](C(=O)O)C(C)C; Sar = CNCC(=O)O
# Tests used:
# Assay type in all cases: cell-based
# [1] = tested on: tyrosinase activity in mouse melanoma cells; assay: Tyrosinase activity in Cloudman S91/mouse melanoma cells, earlier studies; settings: MSH-stimulated tyrosinase activity
# Protocol: The MSH response in these cells can be mimicked by treatment of cells with either cAMP analogues such as dbcAMP (dibutyryl cyclic AMP) or 8-bromo cAMP, or with inhibitors of phosphodiesterase activity such as theophylline and IBMX. […] Although it is clear that cAMP is the second messenger for MSH action, tyrosinase activity is not altered by direct incubation with activated protein kinase A, nor is tyrosinase directly phosphorylated by this kinase. Even though cAMP levels rise within minutes of treatment of cells with MSH, no increases in tyrosinase activity are detectable until 6-9 hours after exposure of cells to hormone. […] In an effort to further delineate the cellular pathways involved in the MSH stimulation of tyrosinase activity, we examined the transcriptional and translational requirements for MSH action. […] However, other studies have shown that tyrosinase may be activated in melanoma cells treated with MSH. Discussed herein are studies carried out to examine the contributions of induction and activation to the overall MSH stimulation of tyrosinase activity in melanoma cells. Further, studies on the regulation of tyrosinase in normal human melanocytes are also described and compared to those from melanoma cells.
# Even more elaborate models involving an activation of tyrosinase via internalized MSH receptors have been proposed. Evidence for tyrosinase inhibitors in mouse melanocytes and melanoma has been reported by many investigators, but no such molecules have yet been isolated.
# [2] = tested on: tyrosinase activity in AM-7 cells; assay: Tyrosinase activity in amelanotic mouse melanoma clone AM-7
# Protocol: (§1) The mouse melanoma cell lines used to study the effects of lysosomotropic agents herein were the Cloudman S91 cell line (ATCC no. CCL 53.1) and two subclones of this line developed in our laboratory, the amelanotic line, AM-7, and a melanotic line, MEL-11A. All melanoma cell lines were grown in Ham's F-10 nutrient medium supplemented with 10% horse serum, penicillin (100 units/ml), and streptomycin (100 μg/ml). The normal human melanocyte cell strains used in this study were derived from foreskins of either neonares or from boys 2-6 years old. Human melanocyte cultures were grown in Ham's F-10 nutrient medium supplemented with 10% horse serum, 5% fetal bovine serum (FBS), 32 nM TPA (12-O-tetradecanoylphorbol 13-acetate), 10^-4 M IBMX(3-isobutyl-1-methylxanthine), penicillin (100 units/ml), and streptomycin (100 μg/ml).
# (§2) To determine tyrosinase activity in situ in either melanoma cells or in human melanocyte cultures, the tyrosine hydroxylase activity of the enzyme was determined. […] Tyrosinase activity in cell homogenates was determined by sonicating cell pellets in 0.1-M sodium phosphate buffer (pH 6.8) and then incubating 50-μl aliquots in 0.5 ml of a reaction mixture containing 0.1-mM tyrosine, 2 μCi/ml of [^3 H]tyrosine, 0.1-mM L-DOPA (dihydroxyphenylalanine), and 0.1 mM PMSF (phenylmethylsulfonyl fluoride) at 37° C. for 2 hours. […]
# [3] = tested on: tyrosinase activity in MEL-11A cells; assay: Tyrosinase activity in melanotic mouse melanoma clone MEL-11A; settings: MSH 10^-7 M or ammonium chloride 10 mM; 24 h; FIG. 4 bottom
# Protocol: as §1, §2
# [4] = tested on: tyrosinase activity in human melanocytes from white-skinned individuals; assay: Tyrosinase activity in human melanocytes from white skin
# Protocol: as §1
# (§3) To determine tyrosinase activity in situ in either melanoma cells or in human melanocyte cultures, the tyrosine hydroxylase activity of the enzyme was determined. Cells were seeded into 60-mm culture dishes at 2×10^5 cells/dish and allowed to attach overnight. The medium was then exchanged for the appropriate growth medium supplemented with 1 μCi/ml of [^3 H]tyrosine (L-ring-3,5-^3 H]-tyrosine, DuPont New England Nuclear), and with hormones, where indicated. Cells were grown in labeled medium for 24 hours, and at this time, the medium was removed and assayed for the presence of ^3 H2 O using the charcoal absorption method of Pomerantz. Tyrosinase activity in cell homogenates was determined by sonicating cell pellets in 0.1-M sodium phosphate buffer (pH 6.8) and then incubating 50-μl aliquots in 0.5 ml of a reaction mixture containing 0.1-mM tyrosine, 2 μCi/ml of [^3 H]tyrosine, 0.1-mM L-DOPA (dihydroxyphenylalanine), and 0.1 mM PMSF (phenylmethylsulfonyl fluoride) at 37° C. for 2 hours. Reactions were terminated by the addition of 1 ml of charcoal (10% w/v in 0.1-N HCl). Samples were centrifuged, and the supernatants removed for determination of the amount of ^3 H2 O produced.
# (§4) Dose/response parameters for ammonium chloride action were determined. […] Since tyrosinase is the rate-limiting enzyme for melanin synthesis, the stimulation of this enzyme by ammonium chloride should lead to increased melanin content of stimulated cells. […] Ammonium chloride increased tyrosinase activity in melanocytes from white-skinned individuals twenty-fold within 24 hours and by this time melanin contents had increased two-fold. Two other lysosomotropic agents, monensin and nigericin, were tested for their effects on tyrosinase activity. […] Thus, lysosomotropic agents have the ability to stimulate tyrosinase activity and melanin production in human melanocytes derived from white-skinned individuals, and to reduce melanin production in melanocytes from black-skinned people.
# [5] = tested on: tyrosinase activity in human melanocytes from black individuals; assay: Tyrosinase activity in human melanocytes from black skin; settings: 10 mM
# Protocol: as §1, with “Human melanocyte cultures were grown in Ham's F-10 nutrient medium supplemented with 10% horse serum, 5% fetal bovine serum (FBS), 32 nM TPA (12-O-tetradecanoylphorbol 13-acetate), 10^-4 M IBMX(3-isobutyl-1-methylxanthine), penicillin (100 units/ml), and streptomycin (100 μg/ml).” left out
# as §2
# Dose/response parameters for ammonium chloride action were determined. […]
# [6] = tested on: melanin in human melanocytes; assay: Melanin content in human melanocytes
# Protocol: as §1
# The amount of melanin in melanoma cells or in melanocytes was determined by incubating cell pellets in 2 ml of 1-N NaOH for 48 hours at 37° C. and then measuring the solubilized melanin at 400 nm.
# as §4
# [7] = tested on: tyrosinase activity in human melanocytes; assay: Tyrosinase responses in human melanocytes (Table 6); settings: Table 6 text
# Protocol: as §1, §3
# Hormone responsiveness in human melanocyte cell cultures were examined (for these studies, melanocytes derived from skin type III were used). […] Tyrosinase activity and melanin content typically double with a 48-hour exposure to IBMX. […] The steroid hormones, for the most part, caused little, if any, change in tyrosinase activity at the concentrations used.
# [8] = tested on: tyrosinase activity in mouse melanoma cells; assay: Tyrosinase responses in mouse melanoma cells (Table 6)
# Protocol: as §1
# as §3, with “produced. […]” for “produced.”
# [9] = within 24 hours, white-skinned individuals
compound,measurement,setting,value
C[C@@H]1C[C@@H]([C@H](O)CC2CC(=O)NC(=O)C2)C(=O)[C@@H](C)C1 [cycloheximide],hormonal induction of enzyme activity,[1],completely blocked
α-amanitin,hormonal induction of enzyme activity,[1],completely blocked
"Cc1c2oc3c(C)ccc(C(=O)N[C@@H]4C(=O)N[C@H](C(C)C)C(=O)N5CCC[C@H]5C(=O)N(C)CC(=O)N(C)[C@@H](C(C)C)C(=O)O[C@@H]4C)c3nc-2c(C(=O)N[C@@H]2C(=O)N[C@H](C(C)C)C(=O)N3CCC[C@H]3C(=O)N(C)CC(=O)N(C)[C@@H](C(C)C)C(=O)O[C@@H]2C)c(N)c1=O [actinomycin D] (I: T[dV]P[Sar][NMeV] / II: T[dV]P[Sar][NMeV]; ester I:1-I:C, II:1-II:C; linker I:N-II:N via Actinocin(9to1))",hormonal induction of enzyme activity,[1],completely blocked
"Cl.N [Ammonium chloride, ammonium chloride]",stimulation of tyrosinase activity in presence of cycloheximide,"[2]; 10 mM ammonium chloride with or without cycloheximide, data not shown",stimulation occurred in cells treated with or without cycloheximide
same,increase in tyrosinase activity,"[2]; 10 mM ammonium chloride, 24 h, FIG. 4 top",two-fold increase
same,increase in tyrosinase activity,[3],four-fold increase
same,Tyrosinase Activity,"[4]; 10 mM, 48 hours, cell strain #84W, FIG. 5",markedly elevated
same,tyrosinase activity in melanocytes derived from white skin,"[4]; 10 mM, footnote c of Table 6",stimulates tyrosinase activity
same,concentration of maximal stimulation of tyrosinase activity,"[4]; cell strain 69W, 48 hours, FIG. 6",7.5 mM
same,stimulation of tyrosinase activity,"[4]; cell strain 69W, up to four hours, FIG. 8",effective in stimulating tyrosinase activity
same,increase in tyrosinase activity,[4]; [9],twenty-fold
same,Tyrosinase Activity,"[5]; 48 hours, cell strain #90A6, FIG. 5",depressed
same,tyrosinase activity in highly melanized melanocytes,"[5]; black skin types, footnote c of Table 6",markedly inhibite
same,melanin versus untreated cells,"[6]; 10 mM, 3 days, cell strain 69W, FIG. 7",twice as much melanin than untreated cells
same,increase in melanin contents,[6]; [9],two-fold
same,tyrosinase activity in human melanocytes,[7],stimulates tyrosinase activity
same,"Effect on Tyrosinase Activity, Mouse Melanoma","[8]; Table 6, 10^-7 M except IBMX 10^-4 M, theophylline 1 mM, ammonium chloride 10 mM, A23187 not given",++ (>300%)
same,tyrosinase activity in mouse melanoma cells,[8]; Table 6 text,stimulates tyrosinase activity
